As usually defined, the pKa is the negative logarithm of the acid dissociation constant.

Consider two compounds from patent publication US20230321017A1, “ACIDIC CANNABINOIDS AND USES THEREOF FOR ENHANCING FEMALE SEXUAL FUNCTION OR TREATING FEMALE SEXUAL DISORDERS” (Vella Bioscience, Inc., priority 2022, published 2023).

The test system of one series is vaginal smooth muscle. The settings on record: earlier study WO2021091908A1; cited from earlier work.
A further series relates to cyclooxygenase isoforms. The settings on record: background statement, selectivity controversial; cited from earlier work.
Series [1] concerns rat distal vaginal smooth muscle tissue. The series can be described thus: In vitro isometric tension, isolated organ bath: relaxation of EFS-induced contractions of distal vagina strips. Conditions: for relaxation of EFS-induced contractions of distal vagina strips compared to the vehicle control: 10 min incubation, two-way ANOVA; for pharmacological relaxant effect on rat distal vaginal smooth muscle tissue (dose dependence): figure legend, 1, 10 and 100 µg/mL. An excerpt: (§1) The following in vitro methodology was utilized to examine the concentration-dependent response of rat vaginal tissue, both proximal and distal, to CBDA and CBD following contraction by electrical field stimulation (similar to efferent neurostimulation in vivo).
(§2) Intact female Sprague-Dawley rats were anesthetized and vagina harvested. A maximum of eight vaginal strips (4 proximal and 4 distal) were obtained from each rat in circular direction and mounted in organ chambers filled with an oxygenated physiological salt solution.
(§3) Strips were excised from the tissue samples and connected to force transducers for isometric tension recording. Organ baths were filled with Krebs buffer maintained at 37° C. and bubbled with 95% O2 and 5% CO2, pH 7.4.
(§4) After the equilibration period, the strips were primed first by the addition to the organ bath of KCI (100 mM, 10 min) and then after a washing step, by stimulation to EFS (electrical parameters: 20 Hz, 3 ms, 10 s, 300 mA). After this priming period, the strips were washed and a baseline frequency response curve (FRC) was obtained (3 ms, 10 s, 300 mA, frequency at 1, 2, 4, 8, 16, 32, and 48 Hz, every 2 minutes). Then, 6 strips (3 proximal and 3 distal) were incubated with vehicle for 10 minutes before applying a second FRC. The remaining 2 strips (one proximal and one distal) served as a time-controls. After a washing step, a third FRC was applied after the incubation of the test compound at 1 µg/mL for a period of 10 min. This was repeated with the concentration of 10 µg/mL, and 100 µg/mL.
(§5) The experiments were performed following the general procedures described in Examples 1 and 2. The data are mean ± SEM of N experiments using vaginal strips from N different rats. p = ns, * p < 0.05, ** p < 0.01, *** p < 0.001, **** p < 0.0001, two-way ANOVA.
(§6) The experiments were performed following the general procedures described in Examples 1 and 2. The data are mean ± SEM of N experiments using vaginal strips from N different rats; p = ns, * p < 0.05, ** p < 0.01, *** p < 0.001, **** p < 0.0001, two-way ANOVA.
(§7) The comparison plots of the pharmacological relaxant effects of CBD and CBDA on rat vaginal smooth muscle tissue are shown in FIGS. 3, 4, and 5. Also, shown are the results of the evaluation of the differences in effects exerted by CBD and CBDA for statistical significance. The data are mean ± SEM of N experiments using vaginal strips from N different rats; p = ns, * p < 0.05, ** p < 0.01, *** p < 0.001, **** p < 0.0001, two-way ANOVA.

Series [2] deals with rat proximal vaginal smooth muscle tissue. Nature of the series: In vitro isometric tension, isolated organ bath: relaxation of EFS-induced contractions of proximal vagina strips. The settings on record: for relaxation of EFS-induced contractions of proximal vagina strips compared to the vehicle control: 10 min incubation, two-way ANOVA; for pharmacological relaxant effect on rat proximal vaginal smooth muscle tissue (dose dependence): figure legend, 1, 10 and 100 µg/mL.
From the text: as §1, §2, §3, §4, §5, §6, §7

For series [3] the following is noted: background statement; cited from earlier work.
Series [4] deals with rat vaginal smooth muscle. Nature of the series: Relaxation of precontracted rat vaginal smooth muscle (summary statement). Conditions: dose-dependent manner; tissue region not specified.
From the text: as §1, §2, §3
as §4, with “After a washing step, a third FRC was applied after the incubation of the test compound at 1 µg/mL for a period of 10 min. This was repeated with the concentration of 10 µg/mL, and 100 µg/mL.” left out

Series [5] can be described thus: pKa estimate by comparison to olivetolic acid. The format is physicochemical. The settings on record: estimated by comparison to olivetolic acid; not reported.

“Also recorded” adds a separate entry of the source.

On to `C=C(C)[C@@H]1CCC(C)=C[C@H]1c1c(O)cc(CCCCC)cc1O` [CBD, (-)-trans-cannabidiol, reference compound], for which, in the series on vaginal smooth muscle, the “relaxation of vaginal smooth muscle” value was “statistically-significant relaxation”. Further, the “activity against cyclooxygenase (COX-1/COX-2)” value with cyclooxygenase isoforms was “much weaker or no activity”. Further, the “relaxation of EFS-induced contractions of distal vagina strips compared to the vehicle control” value in series [1] (1 µg/mL), in series [1] (10 µg/mL) and in series [1] (100 µg/mL) was “statistically-significant relaxation; also recorded: statistically significant relaxation” throughout. Besides, the “pharmacological relaxant effect on rat distal vaginal smooth muscle tissue (dose dependence)” value in series [1] was “statistically significant, dose-dependent pharmacological relaxant effect”. Moreover, the “relaxation of EFS-induced contractions of proximal vagina strips compared to the vehicle control” value in series [2] (10 µg/mL) and in series [2] (100 µg/mL) was “statistically-significant relaxation” in each case. The “pharmacological relaxant effect on rat proximal vaginal smooth muscle tissue (dose dependence)” value in series [2] is recorded as “statistically significant, dose-dependent pharmacological relaxant effect”.

Take `C=C(C)[C@@H]1CCC(C)=C[C@H]1c1c(O)cc(CCCCC)c(C(=O)O)c1O` [CBDA, (1′R,2′R)-2,6-dihydroxy-5′-methyl-4-pentyl-2′-(prop-1-en-2-yl)-1′,2′,3′,4′-tetrahydro[1,1′-biphenyl]-3-carboxylic acid]: in series [3], the “permeability relative to CBD” value was “substantially higher”. Also, the “activity against cyclooxygenase (COX-1/COX-2)” value in the series on cyclooxygenase isoforms is on record as “inhibitor of cyclooxygenase isoforms”. Moreover, the “pharmacological relaxant effect of CBDA compared with CBD, distal vaginal smooth muscle” value in series [1] (1 µg/mL, FIG. 3B) is “no statistically significant difference”; in series [1] (10 µg/mL, FIG. 4B), “stronger”; in series [1] (100 µg/mL, FIG. 5B), “stronger”. Moreover, the “relaxation of EFS-induced contractions of distal vagina strips compared to the vehicle control” value in series [1] (10 µg/mL) and in series [1] (100 µg/mL) was “statistically-significant relaxation” in each case. The “pharmacological relaxant effect on rat distal vaginal smooth muscle tissue (dose dependence)” value in series [1] was “statistically significant, dose-dependent pharmacological relaxant effect”. Further, the “pharmacological relaxant effect of CBDA compared with CBD, proximal vaginal smooth muscle” value was “stronger” in series [2] (1 µg/mL, FIG. 3A); “stronger” in series [2] (10 µg/mL, FIG. 4A); “stronger” in series [2] (100 µg/mL, FIG. 5A). Moreover, the “pharmacological relaxant effect on rat proximal vaginal smooth muscle tissue (dose dependence)” value in series [2] is reported as “statistically significant, dose-dependent pharmacological relaxant effect”. The “effectiveness at relaxing a precontracted rat vaginal smooth muscle, relative to CBD” value in series [4] is on record as “significantly more effective than CBD”. For the same compound, in series [5], the pKa was ~3.4.
